Molecular target: T1, human ACC2 (Homo sapiens, UniProt O00763)
T1 construct: made in house; host or cells: insect cells (baculoviral expression system)
Test: ACC2 assay, spectrophotometric 384 well assay (NADH-linked, coupled lactate dehydrogenase/pyruvate kinase)
Assay type: biochemical
Conditions: ACC2 assay, hACC2 construct lacking 128 N-terminal amino acids, 25° C., 340 nm; read-out: IC50
Method in brief: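 Human ACC2 lacking N-terminal 128 aa, baculovirus/insect-cell expressed, anion-exchange purified; 100 mM Tris pH 7.5, 10 mM citrate, 25 mM KHCO3, 1% DMSO. Started with 200 μM NADH and acetyl-CoA plus 500 μM ATP; PK/LDH-coupled A340 decrease read 15 min at 25° C. IC50 by nonlinear fit of low-control-subtracted slopes.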

T1 sequence (O00763 129-2458 limits assumed): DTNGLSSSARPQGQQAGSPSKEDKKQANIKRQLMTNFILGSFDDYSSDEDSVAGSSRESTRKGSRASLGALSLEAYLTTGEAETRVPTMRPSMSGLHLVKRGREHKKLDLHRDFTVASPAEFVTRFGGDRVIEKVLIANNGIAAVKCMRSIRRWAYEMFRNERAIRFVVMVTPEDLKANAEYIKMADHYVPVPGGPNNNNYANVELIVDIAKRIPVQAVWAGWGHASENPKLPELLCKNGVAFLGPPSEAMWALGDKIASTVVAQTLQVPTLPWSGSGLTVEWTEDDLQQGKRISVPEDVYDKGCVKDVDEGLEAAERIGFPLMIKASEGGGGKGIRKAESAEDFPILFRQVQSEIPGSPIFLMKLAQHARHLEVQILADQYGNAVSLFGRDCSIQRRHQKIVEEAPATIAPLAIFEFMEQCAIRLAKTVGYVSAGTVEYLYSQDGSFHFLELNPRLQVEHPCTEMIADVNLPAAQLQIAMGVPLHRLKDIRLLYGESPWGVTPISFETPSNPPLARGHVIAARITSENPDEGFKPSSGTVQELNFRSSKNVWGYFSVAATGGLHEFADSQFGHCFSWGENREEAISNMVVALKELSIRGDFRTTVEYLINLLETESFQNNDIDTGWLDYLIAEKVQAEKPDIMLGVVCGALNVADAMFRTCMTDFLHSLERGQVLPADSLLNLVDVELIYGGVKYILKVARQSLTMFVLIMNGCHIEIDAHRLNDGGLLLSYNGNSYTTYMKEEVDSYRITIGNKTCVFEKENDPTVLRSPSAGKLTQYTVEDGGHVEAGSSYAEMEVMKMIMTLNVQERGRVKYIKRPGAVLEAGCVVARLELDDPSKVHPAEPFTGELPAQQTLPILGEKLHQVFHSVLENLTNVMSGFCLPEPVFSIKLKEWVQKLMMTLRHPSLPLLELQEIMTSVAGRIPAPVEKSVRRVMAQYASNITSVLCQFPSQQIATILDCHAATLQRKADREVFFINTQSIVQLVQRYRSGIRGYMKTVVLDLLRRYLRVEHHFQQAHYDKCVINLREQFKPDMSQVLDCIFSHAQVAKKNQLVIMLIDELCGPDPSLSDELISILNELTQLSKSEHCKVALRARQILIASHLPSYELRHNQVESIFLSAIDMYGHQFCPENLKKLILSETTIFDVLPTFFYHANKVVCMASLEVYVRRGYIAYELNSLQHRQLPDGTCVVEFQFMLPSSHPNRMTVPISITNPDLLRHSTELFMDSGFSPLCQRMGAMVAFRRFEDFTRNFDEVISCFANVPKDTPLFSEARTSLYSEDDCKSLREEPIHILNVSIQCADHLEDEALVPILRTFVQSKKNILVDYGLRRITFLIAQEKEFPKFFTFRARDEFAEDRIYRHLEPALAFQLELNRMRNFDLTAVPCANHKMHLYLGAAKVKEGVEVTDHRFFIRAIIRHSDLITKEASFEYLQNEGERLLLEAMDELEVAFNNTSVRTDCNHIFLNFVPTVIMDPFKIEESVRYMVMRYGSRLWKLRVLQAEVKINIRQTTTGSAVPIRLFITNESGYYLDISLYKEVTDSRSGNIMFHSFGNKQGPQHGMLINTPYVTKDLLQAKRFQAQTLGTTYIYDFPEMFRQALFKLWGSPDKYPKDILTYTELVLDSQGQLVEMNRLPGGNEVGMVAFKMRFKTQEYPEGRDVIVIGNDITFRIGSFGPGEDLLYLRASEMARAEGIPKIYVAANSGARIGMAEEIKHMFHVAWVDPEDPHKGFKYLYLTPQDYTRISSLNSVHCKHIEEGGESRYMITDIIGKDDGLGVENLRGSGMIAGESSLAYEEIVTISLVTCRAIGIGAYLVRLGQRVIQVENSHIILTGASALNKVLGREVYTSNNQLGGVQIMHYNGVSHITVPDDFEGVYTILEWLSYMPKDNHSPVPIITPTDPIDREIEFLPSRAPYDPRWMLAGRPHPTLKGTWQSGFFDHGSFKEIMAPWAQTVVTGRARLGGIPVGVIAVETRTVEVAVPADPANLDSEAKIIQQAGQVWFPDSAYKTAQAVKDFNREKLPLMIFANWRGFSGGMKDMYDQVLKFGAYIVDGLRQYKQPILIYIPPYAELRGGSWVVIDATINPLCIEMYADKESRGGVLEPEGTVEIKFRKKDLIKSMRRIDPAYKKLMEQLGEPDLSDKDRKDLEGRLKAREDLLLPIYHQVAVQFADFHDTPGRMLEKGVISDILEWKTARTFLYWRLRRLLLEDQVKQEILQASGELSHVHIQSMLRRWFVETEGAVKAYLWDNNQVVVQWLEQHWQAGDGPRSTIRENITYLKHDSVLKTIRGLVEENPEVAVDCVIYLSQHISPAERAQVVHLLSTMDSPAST

Row | IC50 [µM] | Compound
1 | 2.5 | CC(=O)N[C@@H](C)c1ccc(C2CCN(c3cnc(OCC4CC4)nc3)CC2)cc1 [Example 16.5]
2 | 2.8 | CC(=O)N[C@@H](C)c1ccc(C2CCN(c3cc(NC4CCC4)ncn3)CC2)cc1 [Example 11.46]
3 | 1.5 | CC(=O)N[C@@H](C)c1ccc(C2CCN(c3ncccn3)CC2)cc1 [Example 4.45]
4 | 1.9 | CC(=O)N[C@@H](C)c1ccc(C2CCN(c3nc4ccccc4o3)CC2)cc1 [Example 4.9]
5 | 1.7 | CC(=O)N[C@@H](C)c1ccc(C2CCN(c3ccnc(NCC4CCC4)n3)CC2)cc1 [Example 11.94]
6 | 3 | CCC(C)Oc1ccc(N2CCC(c3ccc([C@H](C)NC(C)=O)cc3)CC2)cc1C#N (stereo partly shown) [Example 8.52]
7 | 0.46 | CC(=O)N[C@@H](C)c1ccc(C2CCN(c3ncc(-c4cc5ccc(C)cc5[nH]4)cn3)CC2)cc1 [Example 10.116]
8 | 3.1 | COc1cc(N2CCC(c3ccc([C@H](C)NC(C)=O)cc3)CC2)ccc1Cl [Example 1.162]
9 | 0.27 | CC(=O)N[C@@H](C)c1ccc(C2CCN(c3ccnc(O[C@H]4CCOC4)c3)CC2)cc1 [Example 19.16]
10 | 0.25 | CC(C)Oc1cc(N2CCC(c3ccc([C@H](C)NC(=O)C4CC4)cc3)CC2)ccn1 [Example 1.120]
11 | 1.5 | CCC(C)Oc1ccc(N2CCC(c3ccc([C@H](C)NC(C)=O)cc3)CC2)cc1OC (stereo partly shown) [Example 8.54]
12 | 12.7 | CC(=O)N[C@@H](C)c1ccc(C2CCN(c3ncc(C(=O)Nc4cc(C)on4)cn3)CC2)cc1 [Example 18.78]
13 | 0.63 | COc1cccc(N2CCC(c3ccc([C@H](C)NC(C)=O)cc3)CC2)n1 [Example 5.43]
14 | 0.26 | CC(=O)N[C@@H](C)c1ccc(C2CCN(c3ccc4oc(C(C)C)nc4c3)CC2)cc1 [Example 15.6]
15 | 1.3 | CC(=O)N[C@@H](C)c1ccc(C2CCN(c3nc4ccccc4s3)CC2)cc1 [Example 4.2]
16 | 0.12 | CC(=O)N[C@@H](C)c1ccc(C2CCN(c3ccc(OC4CC4)cc3C)CC2)cc1 [Example 1.92]
17 | 0.08 | CC(=O)N[C@@H](C)c1ccc(C2CCN(c3ccnc(OCC(C)(C)C)c3)CC2)cc1 [Example 19.5]
18 | 0.26 | CC(=O)N[C@@H](C)c1ccc(C2CCN(c3ccnc(N4CCCCC4)n3)CC2)cc1 [Example 11.58]
19 | 0.15 | CC(=O)N[C@@H](C)c1ccc(C2CCN(c3ncc(-c4cc(C)ccn4)cn3)CC2)cc1 [Example 10.122]
20 | 1.9 | CC(=O)N[C@@H](C)c1ccc(C2CCN(c3ncc(C(=O)NC4CC4)cn3)CC2)cc1 [Example 18.5]
21 | 0.71 | CC(=O)N[C@@H](C)c1ccc(C2CCN(c3noc(C(C)C)n3)CC2)cc1 [Example 26.3]
22 | 2.4 | CC(=O)N[C@@H](C)c1ccc(C2CCN(c3cc(NCCC4CC4)ncn3)CC2)cc1 [Example 11.107]
23 | 0.77 | CC(=O)N[C@@H](C)c1ccc(C2CCN(c3ccnc(N(C)C4CC4)n3)CC2)cc1 [Example 11.86]
24 | 26.6 | COc1cc(N2CCC(c3ccc([C@H](C)NC(C)=O)cc3)CC2)ccc1OCC1CCO1 (stereo partly shown) [Example 8.49]

The remaining lines, values behind:

Row | Compound | IC50 [µM]
25 | CCOc1ccc(N2CCC(c3ccc([C@H](C)NC(=O)CO)cc3)CC2)cc1 [Example 6.48] | 3.7
26 | CCOc1ccc(N2CCC(c3ccc(CC(C)NC(C)=O)cc3)CC2)c(C#N)c1 (stereo not shown) [Example 2.11] | 1.3
27 | CCOc1ccc(N2CCC(c3ccc([C@H](C)NC(=O)NCc4ccncn4)cc3)CC2)cc1 [Example 14.60] | 2.1
28 | C[C@H](NC(=O)N(C)C)c1ccc(C2CCN(c3ccnc(Oc4ccccc4)c3)CC2)cc1 [Example 1.138] | 0.16
29 | CC(=O)N[C@@H](C)c1ccc(C2CCN(c3ccnc(NCc4ccccc4)n3)CC2)cc1 [Example 11.56] | 2.3
30 | CCOc1ccc(N2CCC(c3ccc([C@H](C)NC(=O)C4CC4)cc3)CC2)c(F)c1 [Example 1.82] | 0.16
31 | CC(=O)N(C)[C@@H](C)c1ccc(C2CCN(c3ccc(OCC4CC4)cc3)CC2)cc1 [Example 39.1, (S)—N-(1-(4-(1-(4-Cyclopropylmethoxyphenyl)piperidin-4-yl)phenyl)ethyl)-N-methylacetamide] | 12
32 | CC(C)Oc1ccc(N2CCC(c3ccc([C@H](C)NC(=O)N(C)C)cc3)CC2)cc1 [Example 1.127] | 0.33
33 | CCCOc1cnc(N2CCC(c3ccc([C@H](C)NC(=O)C4CC4)cc3)CC2)nc1 [Example 4.305] | 1.4
34 | CC(=O)N[C@@H](C)c1ccc(C2CCN(c3ccc(OC4CCC4)c(C)c3)CC2)cc1 [Example 8.11] | 1.8
35 | CC(=O)N[C@@H](C)c1ccc(C2CCN(c3cccc(OC4CCCC4)c3)CC2)cc1 [Example 8.5] | 0.22
36 | COc1cc(OC2CC2)ccc1N1CCC(c2ccc([C@H](C)NC(=O)C3CC3)cc2)CC1 [Example 1.93] | 0.58
37 | CCOc1ccc(N2CCC(c3ccc([C@H](C)NC(=O)Nc4ccnnc4)cc3)CC2)cc1 [Example 14.58] | 7.1
38 | CCOc1ccc(N2CCC(c3ccc([C@H](C)NC(=O)C4CCC4)cc3)CC2)cc1 [Example 6.7] | 0.77
39 | CC(=O)N[C@@H](C)c1ccc(C2CCN(c3ccc(OC4CCCC4)cc3)CC2)cc1 [Example 1.2] | 0.05
40 | CC(=O)N[C@@H](C)c1ccc(C2CCN(c3cc(NCc4ccccn4)ncn3)CC2)cc1 [Example 11.67] | 26.4

Row | Compound | IC50 [µM]
41 | CC(=O)N[C@@H](C)c1ccc(C2CCN(c3ccc(OC4CCCC4)c(C)c3)CC2)cc1 [Example 8.35] | 0.49
42 | CC(=O)N[C@@H](C)c1ccc(C2CCN(c3ccc(-c4ccc5c(c4)OCO5)cn3)CC2)cc1 [Example 10.312] | 0.16
43 | CCOc1ccc(N2CCC(c3ccc([C@H](C)NC(=O)NC4CC4)cc3)CC2)cc1 [Example 14.3] | 1.4
44 | COCCOc1ccc(N2CCC(c3ccc([C@H](C)NC(C)=O)cc3)CC2)cc1F [Example 8.21] | 1.5
45 | CCOc1ccc(N2CCC(c3ccc([C@H](C)NC(=O)c4cncs4)cc3)CC2)cc1 [Example 6.11] | 0.34
46 | CC(=O)N[C@@H](C)c1ccc(C2CCN(c3ncc(C(=O)N4Cc5ccncc5C4)cn3)CC2)cc1 [Example 18.46] | 6
47 | CCOc1ccc(N2CCC(c3ccc([C@H](C)NC(=O)/C=N/OC)cc3)CC2)cc1 [Example 6.43] | 1.1
48 | CC(=O)N[C@@H](C)c1ccc(C2CCN(c3ncc(C(=O)NCc4ccccc4)cn3)CC2)cc1 [Example 18.92] | 2.2
49 | CC(=O)N[C@@H](C)c1ccc(C2CCN(c3ncc(OCC4CC4)cc3F)CC2)cc1 [Example 1.104] | 0.2
50 | CC(=O)N[C@@H](C)c1ccc(C2CCN(c3ncc(-c4ccc5ncccc5c4)cn3)CC2)cc1 [Example 10.70] | 0.23
51 | CCOc1cccc(-c2cnc(N3CCC(c4ccc([C@H](C)NC(C)=O)cc4)CC3)c(F)c2)c1 [Example 10.307] | 0.31
52 | CCOc1ccc(N2CCC(c3ccc([C@H](C)NC(=O)c4cn[nH]c4)cc3)CC2)cc1 [Example 6.10] | 0.25
53 | CC(=O)N[C@@H](C)c1ccc(C2CCN(c3ccc(OCC4CC4(F)F)cc3)CC2)cc1 (stereo partly shown) [Example 8.66] | 0.06
54 | CCOc1ccc(N2CCC(c3ccc(C4(NC(C)=O)CC4)cc3)CC2)cc1 [Example 3.20] | 7.4
55 | CCCOc1ccc(N2CCC(c3ccc([C@H](C)NC(=O)CC)cc3)CC2)cc1 [Example 1.145] | 0.14
